In ChEMBL document CHEMBL6134843, “HDAC11 Inhibition as a Potential Therapeutic Strategy for AML: Target Identification, Lead Discovery, Antitumor Potency, and Mechanism Investigation” (J Med Chem, 2025):
Activity calls are given as the source filed them. The calls are words filed in the database; no cut-off is given here.

Experiments:
[1] = system: U-937; experiment: Induction of ferroptosis in human U-937 cells assessed as increase in ferrous ion accumulation incubated for 48 hrs by RhoNox-1 staining based flow cytometry analysis; format: functional, cell-based; conditions: dose 2.5-10 µM
[2] = Toxicity in female C57BL/6 mouse assessed as increase in survival rate at 50 mg/kg, ip administered once daily by Kaplan Mayer survival analysis; format: organism-based; conditions: in vivo
[3] = system: Acute myeloid leukemic cell; experiment: Induction of ferroptosis in human Acute myeloid leukemic cells assessed as upregulation of TFRC mRNA level by RT-qPCR analysis; format: functional, cell-based
[4] = Toxicity in female C57BL/6 mouse assessed as drug tolerance at 50 mg/kg, ip administered once daily; format: organism-based; conditions: in vivo
[5] = MRT (0 to infinity) in ICR(CD-1) mouse at 5 mg/kg, iv treated up to 24 hrs by LC-MS/MS analysis; format: ADME, organism-based; conditions: in vivo
[6] = Toxicity in female C57BL/6 mouse model assessed as increase in survival rate at 50 mg/kg, ip administered once daily in presence of cytarabine by Kaplan Mayer survival analysis; format: organism-based; conditions: in vivo
[7] = system: U-937; experiment: Induction of ferroptosis in human U-937 cells assessed as upregulation of HMOX1 level at 10 uM in presence of Zinc protoporphyrin by flow cytometry analysis; format: functional, cell-based
[8] = system: MV4-11; experiment: Antiproliferative activity against human MV4-11 cells assessed as cell growth inhibition incubated for 2 days by CCK-8 assay; conditions: MV4-11, 48 h
[9] = system: U-937; experiment: Effect on WT1 gene expression in human U-937 cells at 10 uM incubated for 48 hrs by RT-qPCR; format: functional, cell-based
[10] = system: U-937; experiment: Induction of cell cycle arrest in human U-937 cells assessed as accumulation of cells at G1 phase at 5 uM incubated for 48 hrs by EdU/DAPI staining based flow cytometry analysis; format: functional
[11] = Antitumor activity against mouse MLL-AF9 cells allografted in female C57BL/6 mouse model assessed as GFP positive leukemic cells in peripheral blood at 50 mg/kg, ip administered once daily for 32 days by FITC staining based analysis (reference value: 72.5 %); format: functional; conditions: time 32 day
[12] = system: U-937; experiment: Effect on CCND2 gene expression in human U-937 cells at 10 uM incubated for 48 hrs by RT-qPCR; format: functional, cell-based
[13] = system: OCI-AML2; experiment: Induction of ferroptosis in human OCI-AML2 cells assessed as increase in ferrous ion accumulation at 5 uM incubated for 48 hrs by RhoNox-1 staining based flow cytometry analysis; format: functional, cell-based
[14] = system: Acute myeloid leukemic cell; experiment: Induction of ferroptosis in human Acute myeloid leukemic cells assessed as upregulation of HMOX1 mRNA level by RT-qPCR analysis; format: functional, cell-based
[15] = system: OCI-AML2; experiment: Induction of cell apoptosis in human OCI-AML2 cells incubated for 48 hrs by Annexin V/DAPI staining based flow cytometry analysis; format: functional; conditions: dose 2.5-10 µM
[16] = system: U-937; experiment: Antiproliferative activity against human U-937 cells assessed as suppression of cell growth at 5 uM incubated for 48 hrs in presence of K67 by trypan blue staining based analysis; format: functional
[17] = system: OCI-AML2; experiment: Induction of ferroptosis in human OCI-AML2 cells assessed as increase in lipid peroxidation level incubated for 48 hrs by C11-BODIPY 581/591 staining based flow cytometry analysis; format: functional, cell-based; conditions: dose 2.5-10 µM
[18] = system: OCI-AML2; experiment: Induction of ferroptosis in human OCI-AML2 cells assessed as increase in malondialdehyde level at 5 uM incubated for 48 hrs in presence of ferrostatin-1; format: functional, cell-based
[19] = Toxicity in female C57BL/6 mouse model assessed as change in body weight at 50 mg/kg, ip administered once daily; format: organism-based; conditions: in vivo
[20] = system: OCI-AML2; experiment: Induction of ferroptosis in human OCI-AML2 cells assessed as increase in lipid peroxidation accumulation at 100 uM incubated for 48 hrs by C11-BODIPY 581/591 staining based flow cytometry analysis; format: functional, cell-based
[21] = system: MOLM-13; experiment: Antiproliferative activity against human MOLM-13 cells assessed as cell growth inhibition incubated for 2 days by CCK-8 assay; conditions: MOLM-13, 48 h
[22] = Antitumor activity against mouse MLL-AF9 cells allografted in female C57BL/6 mouse model assessed as GFP positive leukemic cells in peripheral blood at 50 mg/kg, ip administered once daily for 26 days by FITC staining based analysis (reference value: 30.6 %); format: functional; conditions: time 26 day
[23] = system: Acute myeloid leukemic cell; experiment: Induction of ferroptosis in human Acute myeloid leukemic cells assessed as upregulation of GPX4 mRNA level by RT-qPCR analysis; format: functional, cell-based
[24] = system: U-937; experiment: Effect on CDK6 gene expression in human U-937 cells at 10 uM incubated for 48 hrs by RT-qPCR; format: functional, cell-based
[25] = Volume of distribution at steady state in ICR(CD-1) mouse at 5 mg/kg, iv treated up to 24 hrs by LC-MS/MS analysis; format: ADME, organism-based; conditions: in vivo, read-out: Vdss
[26] = system: OCI-AML-3; experiment: Antiproliferative activity against human OCI-AML-3 cells assessed as cell growth inhibition incubated for 2 days by CCK-8 assay; conditions: OCI-AML-3, 48 h
[27] = system: U-937; experiment: Effect on MOAP1 gene expression in human U-937 cells at 10 uM incubated for 48 hrs by RT-qPCR; format: functional, cell-based
[28] = system: U-937; experiment: Effect on CCNB1 gene expression in human U-937 cells at 10 uM incubated for 48 hrs by RT-qPCR; format: functional, cell-based
[29] = Toxicity in female C57BL/6 mouse assessed as drug tolerance at 50 mg/kg, ip administered once daily in presence of cytarabine; format: organism-based; conditions: in vivo
[30] = system: MLL-AF9; experiment: Antitumor activity against mouse MLL-AF9 cells allografted in female C57BL/6 mouse model assessed as reduction in hepatomegaly at 50 mg/kg, ip administered once daily for 23 days in presence of cytarabine; format: functional, organism-based; conditions: time 23.0 day
[31] = system: U-937; experiment: Antiproliferative activity in human U-937 cells assessed as suppression of cell growth at 10 uM in presence of Zinc protoporphyrin by trypan blue staining based analysis; format: functional
[32] = system: Acute myeloid leukemic cell; experiment: Induction of ferroptosis in human Acute myeloid leukemic cells assessed as upregulation of TFRC protein level at 2.5 to 10 uM by Western blot analysis; format: functional, cell-based; conditions: dose 2.5-10 µM
[33] = system: U-937; experiment: Effect on DDIT3 gene expression in human U-937 cells at 10 uM incubated for 48 hrs by RT-qPCR; format: functional, cell-based
[34] = Antitumor activity against mouse MLL-AF9 cells allografted in female C57BL/6 mouse model assessed as GFP positive leukemic cells in peripheral blood at 50 mg/kg, ip administered once daily for 32 days in presence of cytarabine by FITC staining based analysis (reference value: 72.5 %); format: functional; conditions: time 32 day
[35] = system: OCI-AML2; experiment: Induction of ferroptosis in human OCI-AML2 cells assessed as increase in ROS generation at 5 uM incubated for 48 hrs in presence of ferrostatin-1 by DCFH-DA staining based flow cytometry analysis; format: functional, cell-based
[36] = system: OCI-AML2; experiment: Induction of ferroptosis in human OCI-AML2 cells assessed as increase in lipid peroxidation accumulation at 5 uM incubated for 48 hrs in presence of ferrostatin-1 by C11-BODIPY 581/591 staining based flow cytometry analysis; format: functional, cell-based
[37] = system: OCI-AML2; experiment: Antiproliferative activity against human OCI-AML2 cells assessed as cell growth inhibition incubated for 2 days by CCK-8 assay; conditions: OCI-AML2, 48 h

O=C(NO)c1cccc2[nH]c(C#Cc3cccc(C(F)(F)F)c3)cc12
Activity [1]: Dose-dependent-effect
Activity [2]: Non-toxic
Activity [3]: Active
Activity [4]: Non-toxic
MRT inf [5]: 1.27 h
Activity [6]: Non-toxic
Activity [7]: Active; Partially Reversed Zinc Protoporphyrin Inhibition
IC50 [8]: ≤ 10 µM
Activity [9]: Active
Activity [10]: Dose-dependent-effect
Activity [11]: 17.2%
Activity [12]: Active
Activity [13]: Active
Activity [14]: Active
Activity [15]: Dose-dependent-effect
Activity [16]: inactive
Activity [17]: Dose-dependent-effect
Activity [18]: inactive
Activity [19]: Non-toxic
Activity [20]: Active
IC50 [21]: ≤ 10 µM
Activity [22]: 11.2%
Activity [23]: Active
Activity [24]: Active
Vd [25]: 10.2 L/kg
IC50 [26]: ≤ 10 µM
Activity [27]: Active
Activity [28]: Active
Activity [29]: Non-toxic
Activity [30]: Active
Activity [31]: inactive
Activity [32]: Active
Activity [33]: Active
Activity [34]: 4.3%
Activity [35]: inactive
Activity [36]: inactive
IC50 [37]: 8.07 µM
